Experimental data from patent publication US20260000658A1, “METHODS FOR THE TREATMENT OF PROLIFERATIVE GLOMERULONEPHRITIS” (INSTITUT NATIONAL DE LA SANTÉ ET DE LA RECHERCHE MÉDICALE, priority 2022, published 2026).

Legend:
Format in all cases: in vivo, mouse
[1] = LC-MS analysis of alpelisib in kidneys after oral gavage; conditions: 2 hours after oral gavage
Description: Each tissue type was homogenized in 100% cold methanol with tissue-to-solvent ratio of 1-mg tissue to 5-μl methanol. After sonication of 20 s, the tissue extract was centrifuged at 13,000 g for 30 min and then injected onto a Phenomenex Kinetex XB-C18 HPLC column (100 mm by 2.1 mm) at 45° C. Alpelisib was analyzed by reverse-phase HPLC (Shimadzu LCMS system 8040 interfaced with the LabSolutions software). Twenty […] of tissue extracts were injected onto a column, and the mobile phase used for the separation consisted of two eluants: Solvent A was 0.1% formic acid in ddH20, and solvent B was acetonitrile with 0.1% of formic acid. Compounds were separated by the following discontinuous gradient at a flow rate of 0.6 ml/min: The initial concentration of 20% in solvent B increase to 70% over 6 min, and this was followed by a decrease to 20% over the next minute, and the initial conditions were then maintained for 14 min. The alpelisib was monitored spectrophotometrically by absorbance (photodiode detector) from 205 to 600 nm and by tandem mass detection. The mass measurement was implemented in positive ion mode using multiple reaction monitoring (MRM) with an electrospray ionization source. […] The quantification was done by integration of the peak absorbance area using a calibration curve established with various known concentrations of alpelisib. […]

[2] = test system: uninephrectomized PIK3CA^Pod-HO mice; experiment: Uninephrectomized PIK3CA^Pod-HO mice, vehicle or alpelisib
Text: (§1) A. Urinary albumin to creatinine ratio of PIK3CAWT and PIK3CAPod-HO mice 2 weeks following uninephrectomy and treated either with vehicle or alpelisib (n=8-9 mice per group). B. Serum creatinine levels, C. blood urea nitrogen (BUN) levels of PIK3CAWT and PIK3CAPod-HO mice 2 weeks following uninephrectomy and treated either with vehicle or alpelisib (n=8-9 mice per group). D. Glomerular lesion score of PIK3CAWT and PIK3CAPod-HO mice 2 weeks following uninephrectomy and treated either with vehicle or alpelisib (n=8-9 mice per group). E. Trajectory of albumin to creatinine ratio in the urine of PIK3CAPod-HO mice following uninephrectomy and treated with either vehicle or alpelisib (n=8-9 mice per group).
(§2) For the uninephrectomy experiments, the right kidneys were removed under anesthesia. For the medical treatment of mice, 50 mg kg −1 alpelisib (MedChem Tronica) in 1% carboxymethylcellulose (Sigma Aldrich)+0.5% Tween (Sigma Aldrich) or vehicle (1% carboxymethylcellulose+0.5% Tween) was administered by oral gavage daily for the indicated periods of time. Blood and urines were obtained at the indicated times. At euthanasia, blood, urines, kidneys were harvested. In some experiments, spleens, hearts, and bone marrow (BM) in femurs and tibias were harvested as well. Tissues were fixed in 4% paraformaldehyde and paraffin embedded for immunohistochemical analysis, snap-frozen in Optimal Cutting Temperature (OCT), or stored at −80° C. for mRNA or protein analysis.
(§3) Mouse blood counts were analyzed using a hematology analyzer (ProCyte Dx; IDEXX Laboratories). Mouse serum creatinine, blood urea nitrogen, urinary albumin, and urinary creatinine were evaluated using an AU5800 (Beckman Coulter) autoanalyzer. Serum anti-dsDNA measurement was performed according to the manufacturer's instruction using mouse anti-dsDNA ELISA kit (LBIS). The absorbance was measured using Ininite M Nano (TECAN).
(§4) 4-μm kidney sections were stained with periodic acid-Schiff (PAS), Masson's Trichrome (MT), Periodic acid metenamine silver (PAM) or Hematoxylin and Eosin (HE) staining for histological analysis. The degree of glomerular lesions was evaluated using the following scoring system: 0=no lesion, 1=affecting up to 25% of the glomerulus, 2=affecting 25-50% of the glomerulus, 3=affecting 50-75% of the glomerulus, and 4=affecting 75-100%. At least 50 glomeruli per sample were measured for each analysis. An indirect immunoperoxidase method was used for immunohistochemistry. Briefly, after deparaffinization, antigen retrieval was performed with citrate buffer (pH6) or Tris-EDTA buffer (pH9 or pH6) using microwave or high temperature (95° C.). Endogenous peroxidase activity was quenched using 3% hydrogen peroxide; nonspecific protein binding was blocked using 2.5% normal horse serum (Vector Laboratories), and endogenous biotin activity was quenched using the Avidin/Biotin Blocking Kit (Vector Laboratories). When using mouse primary antibodies on mouse tissue, Klear mouse blocking reagent (Diagomics) was used to block endogenous mouse immunoglobulins. After blocking, the tissue sections were incubated with the primary antibodies overnight at 4° C. The following primary antibodies were used: rabbit anti-Ki67 antibody (SP6; Thermo Fisher Scientific), rabbit anti-P-S6RP antibody (D68F8; Cell Signaling Technology), mouse anti-P-AKT (Ser473) antibody (587F11; Cell Signaling Technology), rabbit anti-P-AKT (Thr308) antibody (C31E5E; Cell Signaling Technology), mouse anti-S6RP antibody (54E2; Cell Signaling Technology), chicken anti-GFP antibody (Abcam), guinea pig anti-Nephrin antibody (GP-N2; Progen), rabbit anti-Podocin antibody (P0372; Sigma Aldrich), mouse anti-WTI antibody (6F-H2; DAKO). The corresponding secondary antibodies including anti-mouse IgG, anti-rabbit IgG, anti-guinea pig IgG, biotinylated anti-rabbit IgG (Vector Laboratories), and biotinylated anti-mouse IgG (Vector Laboratories) were applied. […]

uninephrectomized mice = experiment: as above; conditions: PIK3CA^WT mice, 2 weeks treatment
Text: as §1, §2, §3, §4

[3] = 2 weeks after uninephrectomy, vs vehicle

Question: With `Cc1nc(NC(=O)N2CCC[C@H]2C(N)=O)sc1-c1ccnc(C(C)(C)C(F)(F)F)c1` [alpelisib, Alpelisib] as the compound, how does the “alpelisib in kidneys (LC-MS)” value [1] read?
Answer: detectable

Question: And the “expression of podocytes markers” value [2, 3]?
Answer: higher expression of podocytes markers

Question: And the glomerular lesion score [2, 3]?
Answer: preserved glomerular

Question: What about the “kidney function (serum creatinine, BUN)” value [2, 3] of the same compound?
Answer: better kidney function

Question: What about the “podocyte AKT/mTOR pathway activation” value [2, 3] of the same compound?
Answer: decreased podocyte AKT/mTOR pathway activation

Question: And the tubular dilation [2, 3]?
Answer: fewer tubular dilation

Question: And the “proteinuria (urinary albumin to creatinine ratio)” value ([2]; nephrectomy at 8 weeks old, 2 weeks treatment)?
Answer: significantly decreased

Question: And the “kidney lesions (title of FIG. 2)” value ([2]; uninephrectomized PIK3CAPod-HO mice)?
Answer: improves kidney lesions

Question: And the “phenotype of uninephrectomized PIK3CA^WT control mice” value (uninephrectomized mice)?
Answer: no particular phenotype, without proteinuria or kidney dysfunction
